Measured values published in patent publication US20090176839A1, “FORMULATIONS OF 3-(6-(1-(2,2-DIFLUOROBENZO[D][1,3]DIOXOL-5-YL) CYCLOPROPANECARBOXAMIDO)-3-METHYLPYRIDIN-2-YL)BENZOIC ACID” (priority 2007, published 2009).
Where “and” joins values, the source holds several entries; their conditions need not be identical. Equal entries are not always repeated.

Tests used:
[1] = Stability of 6 mg/mL aqueous methylcellulose-polysorbate 80 suspension (HPLC, XRPD, NMR); assay type: physicochemical; conditions: 0.5% methylcellulose/0.5% polysorbate 80; HCl salt quickly converted to Compound 1 at T(0)
Procedure: Methylcellulose (0.5 g) was combined with 99.0 g of purified water in a beaker and stirred in a 60-70° C. water bath for 30′-1 hr. The solution was stirred in a 0° C. ice/water bath for another 30′ or until clear. Polysorbate 80 (0.5 g) was added and stirring at room temperature followed for 30′-1 hr or until a clear solution was obtained.
The desired amount of 0.5% methylcellulose and 0.5% polysorbate 80 stock solution for making a 6 mg/mL based on free base (6.48 mg/mL based on HCl salt) was transferred into the vial and sonicated for 20 minutes with alternate stirring for 1-2 minutes. The solution was homogenized for approximately 1-2 minutes.
As with 0.5% methylcellulose formulation prepared previously, the HCl salt was quickly converted to Compound 1 in Form I at T(0) resulting in a crystalline free form suspension as shown by XRPD (FIG. 10) and confirmed by ^1H NMR analysis (FIGS. 11-13). Additionally, the solid form in suspension at T(0) was recovered an subjected to HPLC analysis: […]

[2] = Solubility (statement); assay type: physicochemical; conditions: water
[3] = Oral pharmacokinetics of Compound 1 and HCl salt in suspension in male dogs at 200 mg/kg
[4] = Single oral pharmacokinetics of the HCl salt in suspension in fed and fasted male rats; assay type: in vivo, male Sprague Dawley rats; conditions: 30 mg/kg; for AUC0-INF: HCl salt suspension; for Clast / F / Tmax / t1/2 / tlast: HCl salt
Procedure: (§1) Non-validated research grade assays were used for these analyses. All pharmacokinetic studies were conducted using fed animals unless otherwise specified.
The tmax following oral administration of the HCl salt was 3.7 hours under fed and 3.3 hours under fasted conditions, which was similar to the tmax of 3.0 to 4.7 hours following oral administration of Compound 1 under fed conditions.

[5] = Single oral pharmacokinetics of the HCl salt in suspension in male dogs; assay type: in vivo, male beagle dogs; conditions: for AUC0-INF / Cmax: mean (SD)
Procedure: as §1
At nominal dose levels of 5 to 200 mg/kg in 0.5% polysorbate 80/0.5% methylcellulose/water, exposure was high and relatively dose proportional to 200 mg/kg (Table 5). […] Bioavailability ranged from 24% to 49% at all dose levels studied and in both suspension formulations.

[6] = 0.5% polysorbate 80/0.5% MC/Water, 5 mg/kg
[7] = 0.5% polysorbate 80/0.5% MC/Water, 25 mg/kg
[8] = 0.5% polysorbate 80/0.5% MC/Water, 50 mg/kg
[9] = 0.5% polysorbate 80/0.5% MC/Water, 100 mg/kg
[10] = 0.5% polysorbate 80/0.5% MC/Water, 200 mg/kg

In the case of `Cc1ccc(NC(=O)C2(c3ccc4c(c3)OC(F)(F)O4)CC2)nc1-c1cccc(C(=O)O)c1.Cl` [HCl salt, 3-(6-(1-(2,2-difluorobenzo[d][1,3]dioxol-5-yl)cyclopropanecarboxamido)-3-methylpyridin-2-yl)benzoic acid.HCl], the “physical stability of suspension” value [1] is reported as “not physically stable”, the solubility in water [2] is reported as “sparingly soluble” and the Clast ([3]; HCl salt) is reported as 128 ng/mL. It also gave an F ([3]; HCl salt) of 53%, a Tmax ([3]; HCl salt) of 2.5 h and a t1/2 ([3]; HCl salt) of 5.5 h. It also gave a tlast ([3]; HCl salt) of 48 h, an AUC0-INF ([3]; HCl salt suspension) of 755 µg·h/mL and an AUC0-INF ([4]; Fasted) of 383 µg·h/mL. It also gave an AUC0-INF ([4]; Fed) of 340 µg·h/mL, a Clast ([4]; Fasted) of 60 ng/mL and an F ([4]; Fasted) of over 100%. For the same compound, the Tmax ([4]; Fasted) was 3.3 h and 3.33 h, the t1/2 ([4]; Fasted) was 5.36 h and the tlast ([4]; Fasted) was 48 h. The Clast ([4]; Fed) was 240 ng/mL, the F ([4]; Fed) was over 100% and the Tmax ([4]; Fed) was 3.7 h and 3.67 h. For the same compound, the t1/2 ([4]; Fed) was 6.07 h, the tlast ([4]; Fed) was 48 h and the F ([5]; 0.5% MC/Water, 1 mg/kg) was 35%. The T1/2 ([5]; 0.5% MC/Water, 1 mg/kg) was 6.0 h, the Tmax ([5]; 0.5% MC/Water, 1 mg/kg) was 0.83 h and the AUC0-INF ([5]; 0.5% MC/Water, 1 mg/kg) was 2.2 (0.5) hr · μg/mL. For the same compound, the Cmax ([5]; 0.5% MC/Water, 1 mg/kg) was 0.37 (0.2) μg/mL, the F ([5]; 0.5% MC/Water, 3 mg/kg) was 49% and the T1/2 ([5]; 0.5% MC/Water, 3 mg/kg) was 5.3 h. For the same compound, the Tmax ([5]; 0.5% MC/Water, 3 mg/kg) was 1.7 h, the AUC0-INF ([5]; 0.5% MC/Water, 3 mg/kg) was 9.3 (4.8) hr · μg/mL and the Cmax ([5]; 0.5% MC/Water, 3 mg/kg) was 1.1 (0.5) μg/mL. The F ([5]; 0.5% MC/Water, 10 mg/kg) was 40%, the T1/2 ([5]; 0.5% MC/Water, 10 mg/kg) was 8.8 h and the Tmax ([5]; 0.5% MC/Water, 10 mg/kg) was 1.0 h. The AUC0-INF ([5]; 0.5% MC/Water, 10 mg/kg) was 28.4 (12.8) hr · μg/mL, the Cmax ([5]; 0.5% MC/Water, 10 mg/kg) was 8.9 (7.2) μg/mL and the F [5, 6] was 24%. For the same compound, the T1/2 [5, 6] was 7.0 h, the Tmax [5, 6] was 1.0 h and the AUC0-INF [5, 6] was 11.0 (3.6) hr · μg/mL. For the same compound, the Cmax [5, 6] was 3.0 (0.5) μg/mL, the F [5, 7] was 41% and the T1/2 [5, 7] was 5.9 h. The Tmax [5, 7] was 2.0 h, the AUC0-INF [5, 7] was 56.8 (22.1) hr · μg/mL and the Cmax [5, 7] was 18.0 (3.7) μg/mL. It also gave an F [5, 8] of 27%, a T1/2 [5, 8] of 4.9 h and a Tmax [5, 8] of 1.7 h. For the same compound, the AUC0-INF [5, 8] was 63.4 (22.9) hr · μg/mL, the Cmax [5, 8] was 21.0 (7.1) μg/mL and the F [5, 9] was 46%. The T1/2 [5, 9] was 5.4 h, the Tmax [5, 9] was 1.7 h and the AUC0-INF [5, 9] was 268 (123) hr · μg/mL. The Cmax [5, 9] was 54.4 (6.8) μg/mL, the F [5, 10] was 30% and the T1/2 [5, 10] was 5.9 h. For the same compound, the Tmax [5, 10] was 2.3 h, the AUC0-INF [5, 10] was 523 (46.8) hr · μg/mL and the Cmax [5, 10] was 101 (30.2) μg/mL.
